In experiment [1] the test system is HT-29 human colon carcinoma. In words: HT-29 xenograft, A12 with CPT-11 or paclitaxel. The class given is in vivo, nu/nu mice. As to conditions: for inhibition of growth of HT-29 xenografts compared to TBS control: single agent. Here is the method:
[…] nu/nu mice were injected subcutaneously with HT-29 human colon carcinoma cell suspension, at 5×10^6 cells in 0.4 ml mixed 1:1 with Matrigel. […] All treatments were administered by intraperitoneal injection.
Treatment continued for six weeks and tumor measurements were recorded twice weekly using the formula Volume=(π/6)l×w^2. At day 21 four animals per group were sacrificed and the tumors resected for histological evaluation. Treatment and tumor measurements continued on the remaining animals until day 40. At that time final tumor measurements were recorded, animals sacrificed, and four per group had tumor resected for endpoint histological evaluation.

Experiment [2] has as its system BxPC-3 human pancreatic carcinoma cells. In words: BxPC-3 xenograft, A12 with CPT-11 or gemcitabine. The class given is in vivo, athymic nu/nu mice. Conditions: for animals with partial tumor regressions: after five weeks of treatment. Here is the method: Athymic nu/nu mice were injected subcutaneously with 2×10^6 BxPC-3 human pancreatic carcinoma cells mixed 1:1 with Matrigel. […] All treatments were administered by intraperitoneal injection. Tumor measurements were recorded twice weekly using the formula Volume=(π/6)l×w^2.
At day 18 three animals per group were sacrificed and the tumors resected for midpoint histological evaluation. Treatment and tumor measurements continued on the remaining animals until day 44 with the exception of the TBS group. […] At termination of the study final tumor measurements were recorded, animals sacrificed, and four per group had tumors resected for endpoint histological evaluation.

For experiment [3], the system named is HT-29 human colorectal cancer cells. In words: HT-29 xenograft, 2F8 alone or with CPT-11. In kind it is in vivo, athymic nude (nu/nu) mice. As to conditions: 2F8 0.5 mg or 1 mg IP every three days; CPT-11 100 mg/kg IP once a week. Here is the method:
We were interested to determine if the anti-IGF-IR antibodies were capable of inhibiting human tumor growth in vivo in a nude mouse xenograft model. Tumors were induced in 3-4 week old athymic nude (nu/nu) mice by subcutaneous injection of 2-3 million viable HT-29 human colorectal cancer cells in cell culture medium. The tumors were allowed to establish and antibody treatment started when the tumor volume reached 200 mm^3. Ten animals were injected with tumor cells per treatment group. Antibody was injected intraperitoneally (IP) every three days at 1 mg or 0.5 mg in 0.5 ml TBS. The drug irenotecan (CPT-11) (LKT Laboratories) was injected IP (100 mg/kg) once a week for four weeks from the initiation of antibody treatment. Control animals received a class matched irrelevant human IgG antibody. Tumor measurements were performed at regular intervals using Vernier calipers, measuring height, width, and length and calculated to determine the total tumor volume. The study was terminated when control tumors reached 3000 mm^3.

Where [4] appears, read: day 12, ip, A12 1 mg 3 times per week, irinotecan 2 mg or paclitaxel 121 μg every 7 days.
The mark [5] stands for this setting: day 19, ip, A12 1 mg 3 times per week, irinotecan 1 mg or gemcitabine 2.5 mg every 7 days.

In the case of `CCc1c2c(nc3ccc(OC(=O)N4CCC(N5CCCCC5)CC4)cc13)-c1cc3c(c(=O)n1C2)COC(=O)[C@]3(O)CC` [CPT-11, irinotecan], the T/C % in experiment [1] (setting [4]) was determined as 63%; in experiment [1] (day 15, same regimens), 59%; in experiment [1] (day 19, same regimens), 61%; in experiment [1] (day 22, same regimens), 52%; in experiment [1] (day 26, same regimens), 47%; in experiment [1] (day 29, same regimens) it was 45%. Moreover, the T/C % in experiment [1] (day 33, same regimens) is given as 40%; in experiment [1] (day 36, same regimens) it was 40%; in experiment [1] (day 40, same regimens), 41%; in experiment [2] (setting [5]) it was 52%; in experiment [2] (day 23, same regimens), 45%; in experiment [2] (day 26, same regimens), 35%. Also, the T/C % in experiment [2] (day 30, same regimens) was 34%; in experiment [2] (day 32, same regimens), 34%; in experiment [2] (day 37, same regimens), 26%. Moreover, the “inhibition of growth of HT-29 xenografts compared to TBS control” value in experiment [1] was “significantly (P<0.02) inhibited”. Further, the “animals with partial tumor regressions” value in experiment [2] is “no tumor regressions”. In addition, the “inhibition of tumor growth” value in experiment [3] is reported as “responses were similar to treatment with CPT-11 alone”.

In the case of `Nc1ccn([C@@H]2O[C@H](CO)[C@@H](O)C2(F)F)c(=O)n1` [Gemcitabine, gemcitabine], the “animals with partial tumor regressions” value in experiment [2] is given as “no tumor regressions”. For the same molecule, the “Regressions (individual tumor volumes < day 1 of treatment)” value is recorded as 0/11 in experiment [2] (day 19, animals regressing/animals in group); 0/8 in experiment [2] (day 23); 0/8 in experiment [2] (day 26); 0/8 in experiment [2] (day 30); 0/8 in experiment [2] (day 32); 0/8 in experiment [2] (day 37). The “Regressions (individual tumor volumes < day 1 of treatment)” value was 0/8 in experiment [2] (day 41) and 0/7 in experiment [2] (day 44). The T/C % in experiment [2] (setting [5]) is reported as 68%; in experiment [2] (day 23, same regimens), 65%; in experiment [2] (day 26, same regimens), 58%; in experiment [2] (day 30, same regimens) it was 56%; in experiment [2] (day 32, same regimens), 48%; in experiment [2] (day 37, same regimens), 37%.

Take `CC(=O)O[C@H]1C(=O)[C@@]2(C)[C@H]([C@H](OC(=O)c3ccccc3)[C@]3(O)C[C@H](OC(=O)[C@H](O)[C@@H](NC(=O)c4ccccc4)c4ccccc4)C(C)=C1C3(C)C)[C@]1(OC(C)=O)CO[C@@H]1C[C@@H]2O` [paclitaxel]: the T/C % is listed as 66% in experiment [1] (setting [4]); 59% in experiment [1] (day 15, same regimens); 62% in experiment [1] (day 19, same regimens); 56% in experiment [1] (day 22, same regimens); 54% in experiment [1] (day 26, same regimens); 55% in experiment [1] (day 29, same regimens). Further, the T/C % came to 52% in experiment [1] (day 33, same regimens); 45% in experiment [1] (day 36, same regimens); 52% in experiment [1] (day 40, same regimens). For the same molecule, in experiment [1], the “inhibition of growth of HT-29 xenografts compared to TBS control” value was “significantly (P<0.02) inhibited”.
